Measurements published in ChEMBL document CHEMBL2203134, “Discovery of XL888: a novel tropane-derived small molecule inhibitor of HSP90” (Bioorg Med Chem Lett, 2012).
In brackets after ≈: the same amount, converted by molar mass. Values belong to the compound of their own block, whether it stands above or below them. Activity calls are given as the source filed them. The calls are words filed in the database; no cut-off is given here.

Key:
[1] = Drug metabolism in mouse liver microsomes at 15 uM after 30 mins; type: ADME, Microsome; conditions: read-out: Drug metabolism
[2] = Half life in rat at 5 mg/kg, iv; type: ADME, organism-based; design: dose 5 mg/kg, route intravenous; conditions: in vivo
[3] = Apparent permeability across MDCK cells; type: ADME, cell-based, Canis lupus familiaris; conditions: dog
[4] = Drug uptake in human COLO205 tumor xenografted in mouse at 100 mg/kg administered QD for 2 days measured 8 hrs post-last dose; type: ADME, organism-based, Neoplasm; design: dose 100 mg/kg; conditions: human COLO205 tumor xenograft, read-out: Drug uptake
[5] = Clearance in rat at 5 mg/kg, iv; type: ADME, organism-based; design: dose 5 mg/kg, route intravenous; conditions: in vivo
Mus musculus [6] = test: Inhibition of Hsp90 in human COLO205 cells xenografted in mouse assessed as Her2 degradation at 100 mg/kg administered QD for 2 days measured 8 hrs post-last dose; type: functional; conditions: COLO 205
[7] = Kinetic solubility of the compound; type: physicochemical; conditions: read-out: Kinetic_solubility
Heat shock protein HSP90 [8] = molecular target: T1, Heat shock protein HSP90 (Homo sapiens, UniProt P07900+P08238); test: Displacement of biotinylated geldanamycin from human His-tagged Hsp90 by TR-FRET assay; type: protein assay
[9] = Oral bioavailability in rat at 5 mg/kg; type: ADME, organism-based; conditions: in vivo
Heat shock protein HSP90 [10] = molecular target: T1, Heat shock protein HSP90; test: Inhibition of Hsp90 in human A549 cells assessed as Raf1 degradation after 24 hrs by Western blot analysis; type: cell-based
[11] = Drug metabolism in human liver microsomes at 15 uM after 30 mins; type: ADME, Microsome; conditions: read-out: Drug metabolism
Rattus norvegicus = test: Dose normalized AUC in rat at 5 mg/kg, iv; type: ADME, organism-based; design: dose 5 mg/kg, route intravenous; conditions: in vivo
Mus musculus [12] = test: Inhibition of Hsp90 in human COLO205 cells xenografted in mouse assessed as Raf1 degradation at 100 mg/kg administered QD for 2 days measured 8 hrs post-last dose; type: functional; conditions: COLO 205
SK-MEL-28 = test: Antiproliferative activity against human SK-MEL-28 cells overexpressing Braf after 48 hrs by BrdU labeling assay; type: functional, cell-based; conditions: SK-MEL-28, 48 h
BT-474 = test: Antiproliferative activity against human BT474 cells overexpressing Her2 after 48 hrs by BrdU labeling assay; type: functional, cell-based; conditions: BT-474, 48 h
Heat shock protein HSP90 [13] = molecular target: T1, Heat shock protein HSP90; test: Inhibition of Hsp90 in human NCI-N87 cells assessed as Her2 degradation after 24 hrs by Western blot analysis; type: cell-based
[14] = Plasma concentration in mouse xenografted with human NCI-N87 cells at 100 mg/kg administered QD for 3 days measured 24 hrs post-last dose; type: ADME, organism-based; design: dose 100 mg/kg
Mus musculus [15] = test: Inhibition of Hsp90 in human NCI-N87 cells xenografted in mouse assessed as Her2 degradation at 100 mg/kg administered QD for 3 days measured at 8 hrs post-last dose relative to control; type: functional
NCI-H1975 = test: Antiproliferative activity against human NCI-H1975 cells overexpressing EGFR after 48 hrs by BrdU labeling assay; type: functional, cell-based; conditions: NCI-H1975, 48 h
NCI-N87 [16] = test: Antitumor activity against human NCI-N87 cells xenografted in mouse assessed as tumor growth inhibition at 60 mg/kg administered QD relative to control; type: functional; conditions: read-out: TGI
MKN-45 = test: Antiproliferative activity against human MKN45 cells overexpressing MET after 48 hrs by BrdU labeling assay; type: functional, cell-based; conditions: MKN-45, 48 h
[17] = Drug uptake in human NCI-N87 tumor xenografted in mouse at 100 mg/kg administered QD for 3 days measured at 96 hrs post-last dose; type: ADME, organism-based, Neoplasm; design: dose 100 mg/kg; conditions: human NCI-N87 tumor xenograft, read-out: Drug uptake
Mus musculus [18] = test: Inhibition of Hsp90 in human NCI-N87 cells xenografted in mouse assessed as Hsp70 upregulation at 100 mg/kg administered QD for 3 days measured at 8 hrs post-last dose relative to control; type: functional
Plasma = test: Plasma concentration in mouse xenografted with human NCI-N87 cells at 100 mg/kg administered QD for 3 days measured 96 hrs post-last dose; type: ADME, organism-based; design: dose 100 mg/kg; conditions: in vivo, BLD = below limit of detection
Mus musculus [19] = test: Inhibition of Hsp90 in human NCI-N87 cells xenografted in mouse assessed as Raf1 degradation at 100 mg/kg administered QD for 3 days measured at 8 hrs post-last dose relative to control; type: functional
Mus musculus [20] = test: Inhibition of Hsp90 in human NCI-N87 cells xenografted in mouse assessed as Her2 degradation at 100 mg/kg administered QD for 3 days measured up to 48 hrs post-last dose relative to control; type: functional
Mus musculus [21] = test: Inhibition of Hsp90 in human NCI-N87 cells xenografted in mouse assessed as Raf1 degradation at 100 mg/kg administered QD for 3 days measured after 8 hrs post-last dose relative to control; type: functional, organism-based; design: dose 100 mg/kg
NCI-N87 [22] = test: Antiproliferative activity against human NCI-N87 cells overexpressing Her2 after 48 hrs by BrdU labeling assay; type: functional, cell-based; conditions: NCI-N87, 48 h
[23] = Plasma concentration in mouse xenografted with human NCI-N87 cells at 100 mg/kg administered QD for 3 days measured 8 hrs post-last dose; type: ADME, organism-based; design: dose 100 mg/kg
HN5 = test: Antiproliferative activity against human HN5 cells overexpressing EGFR after 48 hrs by BrdU labeling assay; type: functional, cell-based; conditions: HN5, 48 h
[24] = Drug uptake in human NCI-N87 tumor xenografted in mouse at 100 mg/kg administered QD for 3 days measured at 24 hrs post-last dose; type: ADME, organism-based, Neoplasm; design: dose 100 mg/kg; conditions: human NCI-N87 tumor xenograft, read-out: Drug uptake
A549 = test: Antiproliferative activity against human A549 cells overexpressing Kras after 48 hrs by BrdU labeling assay; type: functional, cell-based; conditions: A549, 48 h
NCI-N87 [25] = test: Antitumor activity against human NCI-N87 cells xenografted in mouse assessed as tumor growth inhibition at 100 mg/kg administered QD for 3 days in a week relative to control; type: functional; conditions: NCI-N87, 72 h, read-out: TGI
MCF7 = test: Antiproliferative activity against human MCF7 cells overexpressing PI3K after 48 hrs by BrdU labeling assay; type: functional, cell-based; conditions: MCF7, 48 h
MDA-MB-453 = test: Antiproliferative activity against human MDA-MB-453 cells overexpressing Her2 after 48 hrs by BrdU labeling assay; type: functional, cell-based; conditions: MDA-MB-453, 48 h
COLO 205 = test: Antiproliferative activity against human COLO205 cells overexpressing Braf after 48 hrs by BrdU labeling assay; type: functional, cell-based; conditions: COLO 205, 48 h
[26] = Drug uptake in human NCI-N87 tumor xenografted in mouse at 100 mg/kg administered QD for 3 days measured at 8 hrs post-last dose; type: ADME, organism-based, Neoplasm; design: dose 100 mg/kg; conditions: human NCI-N87 tumor xenograft, read-out: Drug uptake
Mus musculus [27] = test: Inhibition of Hsp90 in human NCI-N87 cells xenografted in mouse assessed as Hsp70 upregulation at 100 mg/kg administered QD for 3 days measured at 96 hrs post-last dose relative to control; type: functional
NCI-N87 [28] = test: Antitumor activity against human NCI-N87 cells xenografted in mouse assessed as tumor regression at 100 mg/kg administered QD for 3 days in a week relative to control; type: functional

Compound: COc1cccc(C(=O)NC2CC3CCC(C2)N3c2ccc(C(N)=O)cn2)c1C (centres undefined)
metabolised at 0.5 h, 15 µM [1]: 29%
half-life [2]: 2.1 h
Papp [3]: 13.3 ×10⁻⁶ cm/s
concentration at 8 h [4]: 6700 nM
clearance [5]: 6.15 mL/min/kg
inhibition in vivo at 100 mg/kg (Mus musculus [6]): 63%
solubility kinetic [7]: 470 µM (≈ 185 µg/mL)
IC50 (Heat shock protein HSP90 [8]): 641 nM
bioavailability [9]: 81%
IC50 (Heat shock protein HSP90 [10]): 3800 nM
metabolised at 0.5 h, 15 µM [11]: 21%
AUC/dose (Rattus norvegicus): 6.3 µM·kg·h/mg
inhibition (Mus musculus [12]): inactive

IC50 (SK-MEL-28): 0.3 nM
IC50 (BT-474): 0.1 nM
IC50 (Heat shock protein HSP90 [13]): 56 nM
concentration at 24 h [14]: 70 nM
half-life [2]: 1.4 h
IC50 (NCI-H1975): 0.7 nM
Papp [3]: 32 ×10⁻⁶ cm/s
clearance [5]: 15.3 mL/min/kg
IC50 (MKN-45): 45.5 nM
concentration at 96 h [17]: 1820 nM
Cp (Plasma): BLD
bioavailability [9]: 30%
concentration at 8 h [23]: 2260 nM
AUC/dose (Rattus norvegicus): 2.23 µM·kg·h/mg
concentration at 24 h [24]: 2860 nM
IC50 (A549): 4.3 nM
IC50 (MCF7): 4.1 nM
IC50 (MDA-MB-453): 16 nM
IC50 (COLO 205): 11.6 nM
concentration at 8 h [26]: 5390 nM
Compound: CC[C@@H](C)Nc1cc(C(=O)NC2CC3CCC(C2)N3c2ccc(C(=O)C3CC3)cn2)c(C)cc1C(N)=O (some centres undefined)
inhibition in vivo at 100 mg/kg (Mus musculus [15]): 92%
inhibition in vivo at 60 mg/kg (NCI-N87 [16]): 100%
inhibition in vivo at 100 mg/kg (Mus musculus [18]): 234%
inhibition in vivo at 100 mg/kg (Mus musculus [19]): 56%
inhibition in vivo at 100 mg/kg (Mus musculus [20]): 75%
inhibition (Mus musculus [21]): inactive
IC50 (NCI-N87 [22]): 21.8 nM
IC50 (HN5): 5.5 nM
inhibition in vivo at 100 mg/kg (NCI-N87 [25]): > 100%
inhibition in vivo at 100 mg/kg (Mus musculus [27]): 343%
Activity (NCI-N87 [28]): 21%
